Earlier results on four compounds are cited in patent US11771641B2, “Method for dyeing keratinous material by means of a premix of aminosilicone and a chromophoric compound” (Henkel AG & Co. KGaA, priority 2019, dated 2023).

Structures are written as SMILES.

For the data set the following is noted: 25° C.

As for `O=S(=O)(O)c1ccc(N=Nc2c(O)ccc3ccccc23)cc1` [Acid Orange 7, 4-[(2-hydroxy-1-naphthyl)azo]benzene sulphonate], the solubility in water result was “more than 7 g/L”.
For `CCN(Cc1cccc(S(=O)(=O)O)c1)c1ccc(C(=C2C=CC(=[N+](CC)Cc3cccc(S(=O)(=O)O)c3)C=C2)c2ccccc2S(=O)(=O)[O-])cc1` [Acid Blue 9], the solubility in water entry is given as “more than 20 % by weight”.
Turning to `O=C(O)C1=NN(c2ccc(S(=O)(=O)O)cc2)C(=O)C1N=Nc1ccc(S(=O)(=O)O)cc1` (stereo not shown) [Acid Yellow 23, 4,5-dihydro-5-oxo-1-(4-sulfophenyl)-4-((4-sulfophenyl)azo)-1H-pyrazole-3-carboxylic acid], the “solubility in water (in words)” value is recorded as “highly soluble”.
As for `O=[N+]([O-])c1cc([N+](=O)[O-])c2ccc(S(=O)(=O)O)cc2c1O` [Acid Yellow 9, 8-hydroxy-5,7-dinitro-2-naphthalenesulfonic acid], the solubility in water entry is “above 40 g/L”.
